The values below come from ChEMBL document CHEMBL1629418, “Spiroimidazolidinone NPC1L1 inhibitors. Part 2: structure-activity studies and in vivo efficacy” (Bioorg Med Chem Lett, 2010).

The assay deals with T1, NPC1-like intracellular cholesterol transporter 1 (Homo sapiens, UniProt Q9UHC9).
T1 sequence (Q9UHC9 whole entry): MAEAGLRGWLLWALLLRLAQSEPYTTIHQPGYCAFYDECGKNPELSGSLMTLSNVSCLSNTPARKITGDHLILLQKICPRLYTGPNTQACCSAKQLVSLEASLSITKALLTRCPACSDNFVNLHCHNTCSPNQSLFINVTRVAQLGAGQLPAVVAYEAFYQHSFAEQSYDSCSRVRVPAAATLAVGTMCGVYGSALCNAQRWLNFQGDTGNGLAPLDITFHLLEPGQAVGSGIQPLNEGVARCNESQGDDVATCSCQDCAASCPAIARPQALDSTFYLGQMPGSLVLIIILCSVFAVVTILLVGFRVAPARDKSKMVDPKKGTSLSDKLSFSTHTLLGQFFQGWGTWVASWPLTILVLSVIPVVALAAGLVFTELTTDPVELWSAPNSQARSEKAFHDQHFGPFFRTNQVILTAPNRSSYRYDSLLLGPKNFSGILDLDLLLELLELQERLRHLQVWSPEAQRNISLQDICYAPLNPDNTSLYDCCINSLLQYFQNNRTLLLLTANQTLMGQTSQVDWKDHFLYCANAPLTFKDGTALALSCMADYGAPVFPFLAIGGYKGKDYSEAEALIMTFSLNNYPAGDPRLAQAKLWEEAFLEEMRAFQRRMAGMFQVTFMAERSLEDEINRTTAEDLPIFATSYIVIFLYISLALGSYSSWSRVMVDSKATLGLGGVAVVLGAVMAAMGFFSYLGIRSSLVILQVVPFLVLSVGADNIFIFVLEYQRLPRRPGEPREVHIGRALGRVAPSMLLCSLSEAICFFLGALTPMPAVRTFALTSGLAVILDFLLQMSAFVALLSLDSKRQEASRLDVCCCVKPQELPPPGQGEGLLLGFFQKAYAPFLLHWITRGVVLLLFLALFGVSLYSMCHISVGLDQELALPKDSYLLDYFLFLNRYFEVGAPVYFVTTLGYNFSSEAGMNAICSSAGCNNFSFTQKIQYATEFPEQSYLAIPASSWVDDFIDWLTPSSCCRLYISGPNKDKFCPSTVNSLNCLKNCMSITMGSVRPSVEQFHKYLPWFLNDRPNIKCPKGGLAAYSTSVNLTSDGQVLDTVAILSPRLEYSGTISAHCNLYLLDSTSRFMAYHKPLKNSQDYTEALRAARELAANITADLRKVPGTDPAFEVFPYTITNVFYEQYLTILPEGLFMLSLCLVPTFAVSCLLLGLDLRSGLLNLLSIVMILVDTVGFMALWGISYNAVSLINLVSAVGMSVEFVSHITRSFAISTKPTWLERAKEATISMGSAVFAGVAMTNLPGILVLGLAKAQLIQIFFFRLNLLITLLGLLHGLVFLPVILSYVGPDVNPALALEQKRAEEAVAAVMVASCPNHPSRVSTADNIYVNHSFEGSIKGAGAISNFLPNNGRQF
The assay is described as follows: Displacement of [35S](2S,3S,4S,5R,6S)-6-(4-((2S,3R)-3-((S)-3-(4-fluorophenyl)-3-hydroxypropyl)-1-(4-(3-(methylsulfonamido)prop-1-ynyl)phenyl)-4-oxoazetidin-2-yl)phenoxy)-3,4,5-trihydroxytetrahydro-2H-pyran-2-carboxylic acid from human NCP1L1 expressed in HEK 293. Format: cell-based, HEK293.

As usually defined, the IC50 is the concentration at which inhibition is half-maximal. With `CC1CCCN(C(=O)CN2CN(c3ccccc3)C3(CCN(C(=O)c4ccc(C(C)(C)C)cc4)CC3)C2=O)C1` (stereo not drawn), the IC50 worked out at 12 µM. In other words, the double-digit micromolar range.

In the case of `CC(C)(C)c1ccc(C(=O)N2CCC3(CC2)C(=O)N(CC(=O)N2CCCC(CO)C2)CN3c2ccccc2)cc1` (stereo not drawn), the IC50 is 8.2 µM.

In turn, `O=C(CN1CN(c2ccccc2)C2(CCN(C(=O)c3ccc(C4CCCCC4)cc3)CC2)C1=O)N1CCNCC1` returned an IC50 of 6.5 µM. This IC50 and that of the compound before are within 1.5-fold of each other.

`CS(=O)(=O)N1CCN(C(=O)CN2CN(c3ccccc3)C3(CCN(C(=O)c4ccc(C5CCCCC5)cc4)CC3)C2=O)CC1`: the IC50 came to 6.3 µM.

In turn, `CC(C)(C)OC(=O)NC1CCN(C(=O)CN2CN(c3ccccc3)C3(CCN(C(=O)c4ccc(C(C)(C)C)cc4)CC3)C2=O)CC1` gave an IC50 of 8.3 µM.

As for `CC(C)(C)c1ccc(C(=O)N2CCC3(CC2)C(=O)N(CC(=O)N2CCC(O)CC2)CN3c2ccccc2)cc1`, the IC50 came out at 4.7 µM.

`CC(C)(C)c1ccc(C(=O)N2CCC3(CC2)C(=O)N(CC(=O)N2CCCCC2CO)CN3c2ccccc2)cc1` (stereo not drawn) yielded an IC50 of 11.8 µM. This IC50 lies about 2.5-fold higher than the previous one.

`CC(C)(C)c1ccc(C(=O)N2CCC3(CC2)C(=O)N(CC(=O)N2CCN(S(C)(=O)=O)CC2)CN3c2ccccc2)cc1` yielded an IC50 of 19 µM.

`CCOC(=O)C1CCN(C(=O)CN2CN(c3ccccc3)C3(CCN(C(=O)c4ccc(C5CCCCC5)cc4)CC3)C2=O)CC1` had an IC50 of 0.9 µM.

The compound `CCN(CC)C(=O)C1CCCN(C(=O)CN2CN(c3ccccc3)C3(CCN(C(=O)c4ccc(C5CCCCC5)cc4)CC3)C2=O)C1` (stereo not drawn) registered an IC50 of 3.3 µM. Compared with the last compound, the IC50 is about 3.7-fold higher.

Compound `CC(C)(C)c1ccc(C(=O)N2CCC3(CC2)C(=O)N(CC(=O)NCCCNS(C)(=O)=O)CN3c2ccccc2)cc1` registered an IC50 of 10.4 µM. Compared with the last compound, the IC50 is about 3.2-fold higher.

For `CC(C)(C)OC(=O)NCCNC(=O)CN1CN(c2ccccc2)C2(CCN(C(=O)c3ccc(C(C)(C)C)cc3)CC2)C1=O`, the IC50 stood at 9.4 µM.

The compound `CC(C)(C)c1ccc(C(=O)N2CCC3(CC2)C(=O)N(CC(=O)NCCO)CN3c2ccccc2)cc1` displayed an IC50 of 19.2 µM.

`CC(C)(C)OC(=O)NC1CCCN(C(=O)CN2CN(c3ccccc3)C3(CCN(C(=O)c4ccc(C(C)(C)C)cc4)CC3)C2=O)C1` (stereo not drawn) came in with an IC50 of 4.2 µM.

Compound `O=C(CN1CN(c2ccccc2)C2(CCN(C(=O)c3ccc(C4CCCCC4)cc3)CC2)C1=O)N1CCC(CO)CC1` displayed an IC50 of 1.1 µM.

For the compound `COC(=O)CCCNC(=O)CN1CN(c2ccccc2)C2(CCN(C(=O)c3ccc(C4CCCCC4)cc3)CC2)C1=O`, the IC50 was 4.5 µM.

Compound `NC(=O)C1CCCN(C(=O)CN2CN(c3ccccc3)C3(CCN(C(=O)c4ccc(C5CCCCC5)cc4)CC3)C2=O)C1` (stereo not drawn) had an IC50 of 3.1 µM.

As for `CCOC(=O)C1CCN(C(=O)CN2CN(c3ccccc3)C3(CCN(C(=O)c4ccc(C(C)(C)C)cc4)CC3)C2=O)CC1`, the IC50 was found to be 3.1 µM.

`CC(C)(C)c1ccc(C(=O)N2CCC3(CC2)C(=O)N(CC(=O)N2CCC(CCO)CC2)CN3c2ccccc2)cc1` displayed an IC50 of 2.6 µM.

`CC(C)(C)OC(=O)NCNC(=O)CN1CN(c2ccccc2)C2(CCN(C(=O)c3ccc(C(C)(C)C)cc3)CC2)C1=O` returned an IC50 of 59 µM.

Consider `CCC1CCCN(C(=O)CN2CN(c3ccccc3)C3(CCN(C(=O)c4ccc(C(C)(C)C)cc4)CC3)C2=O)C1` (stereo not drawn), for which the IC50 worked out at 3.9 µM.

The compound `CC(C)(C)c1ccc(C(=O)N2CCC3(CC2)C(=O)N(CC(=O)N2CCCC(C(N)=O)C2)CN3c2ccccc2)cc1` (stereo not drawn) registered an IC50 of 16.9 µM. This IC50 lies about 4.3-fold higher than the previous one.

On to `CC1(C)CC(OC(=O)CN2CN(c3ccccc3)C3(CCN(C(=O)c4ccc(C5CCCCC5)cc4)CC3)C2=O)CC(C)(C)N1`, for which the IC50 was 0.6 µM. This IC50 lies about 28-fold lower than the previous one.

`CC(C)(C)c1ccc(C(=O)N2CCC3(CC2)C(=O)N(CC(=O)NCCCCNS(C)(=O)=O)CN3c2ccccc2)cc1` showed an IC50 of 10.3 µM.

In turn, `CCc1c(C)c(C2CCN(C(=O)CN3CN(c4ccccc4)C4(CCN(C(=O)c5ccc(C(C)(C)C)cc5)CC4)C3=O)CC2)nn1CC` had an IC50 of 5.4 µM.

Compound `CCN(CC)C(=O)C1CCCN(C(=O)CN2CN(c3ccccc3)C3(CCN(C(=O)c4ccc(C(C)(C)C)cc4)CC3)C2=O)C1` (stereo not drawn) yielded an IC50 of 8.7 µM.

`COC(=O)CNC(=O)CN1CN(c2ccccc2)C2(CCN(C(=O)c3ccc(C4CCCCC4)cc3)CC2)C1=O` displayed an IC50 of 3.7 µM.

The compound `CC(C)(C)c1ccc(C(=O)N2CCC3(CC2)C(=O)N(CC(=O)NCCCCN)CN3c2ccccc2)cc1` gave an IC50 of 14 µM.

For `CC(C)(C)c1ccc(C(=O)N2CCC3(CC2)C(=O)N(CC(=O)NCCCCO)CN3c2ccccc2)cc1`, the IC50 turned out to be 8.3 µM.

`CC(C)(C)c1ccc(C(=O)N2CCC3(CC2)C(=O)N(CC(=O)N2CCC(CO)CC2)CN3c2ccccc2)cc1`: the IC50 is 4 µM.

In turn, `CC(C)(C)OC(=O)NCC1CCCN(C(=O)CN2CN(c3ccccc3)C3(CCN(C(=O)c4ccc(C(C)(C)C)cc4)CC3)C2=O)C1` (stereo not drawn) returned an IC50 of 9.5 µM. This IC50 is about 2.4-fold higher than that of the compound before.

`CC(C)(C)OC(=O)NCCNC(=O)CN1CN(c2ccccc2)C2(CCN(C(=O)c3ccc(C4CCCCC4)cc3)CC2)C1=O` showed an IC50 of 13.7 µM.

For the compound `CC(C)(C)c1ccc(C(=O)N2CCC3(CC2)C(=O)N(CC(=O)NCCCCCO)CN3c2ccccc2)cc1`, the IC50 amounted to 3.8 µM.

`CC(C)(C)c1ccc(C(=O)N2CCC3(CC2)C(=O)N(CC(=O)N2CCCC(O)C2)CN3c2ccccc2)cc1` (stereo not drawn) had a 50% inhibitory concentration (IC50) of 12.2 µM.

Take `CC(C)(C)OC(=O)NCCCNC(=O)CN1CN(c2ccccc2)C2(CCN(C(=O)c3ccc(C(C)(C)C)cc3)CC2)C1=O`: the IC50 was 3.2 µM. Against the preceding compound, the IC50 is about 3.8-fold lower.

Compound `CC(C)(C)OC(=O)NCC1CCN(C(=O)CN2CN(c3ccccc3)C3(CCN(C(=O)c4ccc(C(C)(C)C)cc4)CC3)C2=O)CC1` came in with an IC50 of 4.2 µM.

For the compound `CC(C)(C)OC(=O)NCCCCCNC(=O)CN1CN(c2ccccc2)C2(CCN(C(=O)c3ccc(C(C)(C)C)cc3)CC2)C1=O`, the IC50 worked out at 3.1 µM.

In the case of `CC1(C)CC(OC(=O)CN2CN(c3ccccc3)C3(CCN(C(=O)c4ccc(C(C)(C)C)cc4)CC3)C2=O)CC(C)(C)N1`, the IC50 came out at 1.3 µM.

Consider `CC(C)(C)OC(=O)NCCCCNC(=O)CN1CN(c2ccccc2)C2(CCN(C(=O)c3ccc(C4CCCCC4)cc3)CC2)C1=O`, for which the IC50 was 5.5 µM.

`CCc1nn(CC)c(C2CCN(C(=O)CN3CN(c4ccccc4)C4(CCN(C(=O)c5ccc(C(C)(C)C)cc5)CC4)C3=O)CC2)c1CC`: the half-inhibitory concentration (IC50) turned out to be 4.6 µM.

`CCC1CCCN(C(=O)CN2CN(c3ccccc3)C3(CCN(C(=O)c4ccc(C5CCCCC5)cc4)CC3)C2=O)C1` (stereo not drawn): the IC50 stood at 2.6 µM.

`CC(C)(C)c1ccc(C(=O)N2CCC3(CC2)C(=O)N(CC(=O)N2CCCCC2CCO)CN3c2ccccc2)cc1` (stereo not drawn) had an IC50 of 6.1 µM.

`COC(=O)CCNC(=O)CN1CN(c2ccccc2)C2(CCN(C(=O)c3ccc(C4CCCCC4)cc3)CC2)C1=O` showed an IC50 of 4.5 µM.

In the case of `CC(C)(C)OC(=O)NC1CCN(C(=O)CN2CN(c3ccccc3)C3(CCN(C(=O)c4ccc(C5CCCCC5)cc4)CC3)C2=O)CC1`, the IC50 is 4.8 µM.

For `CC(C)(C)OC(=O)NCC1CCCN(C(=O)CN2CN(c3ccccc3)C3(CCN(C(=O)c4ccc(C5CCCCC5)cc4)CC3)C2=O)C1` (stereo not drawn), the IC50 was determined as 3.8 µM.

As to `CC(C)(C)c1ccc(C(=O)N2CCC3(CC2)C(=O)N(CC(=O)N2CCN(S(=O)(=O)c4ccccc4)CC2)CN3c2ccccc2)cc1`, the IC50 is 15 µM.

For `O=C(CN1CN(c2ccccc2)C2(CCN(C(=O)c3ccc(C4CCCCC4)cc3)CC2)C1=O)N1CCN(S(=O)(=O)c2ccccc2)CC1`, the IC50 was 14.2 µM.

Turning to `COC(=O)CNC(=O)CN1CN(c2ccccc2)C2(CCN(C(=O)c3ccc(C(C)(C)C)cc3)CC2)C1=O`, the IC50 is 16.6 µM.

`CCOC(=O)C1CCCN(C(=O)CN2CN(c3ccccc3)C3(CCN(C(=O)c4ccc(C(C)(C)C)cc4)CC3)C2=O)C1` (stereo not drawn) came in with an IC50 of 8.2 µM. This IC50 is about 2-fold lower than that of the compound before.

For the compound `CC(C)(C)OC(=O)NCCCNC(=O)CN1CN(c2ccccc2)C2(CCN(C(=O)c3ccc(C4CCCCC4)cc3)CC2)C1=O`, the IC50 is 3.7 µM.

Turning to `CC(C)(C)c1ccc(C(=O)N2CCC3(CC2)C(=O)N(CC(=O)NCCNS(C)(=O)=O)CN3c2ccccc2)cc1`, the IC50 was 49 µM.

As for `CC(C)(C)OC(=O)NCC1CCN(C(=O)CN2CN(c3ccccc3)C3(CCN(C(=O)c4ccc(C5CCCCC5)cc4)CC3)C2=O)CC1`, the IC50 was 2.5 µM.

`CC(C)(C)c1ccc(C(=O)N2CCC3(CC2)C(=O)N(CC(=O)NCCCN)CN3c2ccccc2)cc1` gave an IC50 of 49 µM.
